Experimental data reported in US20110143948A1, “MOLECULAR SIGNATURES AND BIOMARKERS ASSOCIATED WITH MELANOMA AND METHODS OF USE THEREOF” (priority 2008, published 2011).

System: ncRNAs (SEQ ID NO 28-89)
Experiment: ncRNA arrays of melanocytes, keratinocytes, normal skin, melanoma cell lines and patient samples
Parameters: species or system human
Settings: for ncRNA array expression, patient 2: melanoma patient 2 sample compared to normal skin; for ncRNA array expression, patient 3: melanoma patient 3 sample compared to normal skin; for ncRNA array expression, patient 4: melanoma patient 4 sample compared to normal skin; for ncRNA array expression, patient 5: melanoma patient 5 sample compared to normal skin; for ncRNA array expression, patient 6: melanoma patient 6 sample compared to normal skin; for ncRNA array expression, patient 7: melanoma patient 7 sample compared to normal skin; for ncRNA array expression, patient 8: melanoma patient 8 sample compared to normal skin; for ncRNA array expression, patient 9: melanoma patient 9 sample compared to normal skin; for ncRNA array expression, patient 10: melanoma patient 10 sample compared to normal skin; for ncRNA array expression, patient 19: melanoma patient 19 sample compared to normal skin; for ncRNA array expression, patient 20: melanoma patient 20 sample compared to normal skin; for ncRNA array expression, patient 21: melanoma patient 21 sample compared to normal skin; for ncRNA array expression, patient 22: melanoma patient 22 sample compared to normal skin; for ncRNA array expression, patient 23: melanoma patient 23 sample compared to normal skin; for ncRNA array expression, patient 24: melanoma patient 24 sample compared to normal skin; for ncRNA array expression, patient 25: melanoma patient 25 sample compared to normal skin; for ncRNA array expression, patient 26: melanoma patient 26 sample compared to normal skin; for ncRNA array expression, patient 27: melanoma patient 27 sample compared to normal skin; for ncRNA array expression, patient 28: melanoma patient 28 sample compared to normal skin; for ncRNA array expression, patient 29: melanoma patient 29 sample compared to normal skin; for ncRNA array expression, patient 30: melanoma patient 30 sample compared to normal skin
Method in brief: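 Differential ncRNA expression was defined against melanocytes or normal skin after subtracting keratinocyte-specific signals, with confirmation by qRT-PCR and Northern blot. Samples were melanoma cell lines, patient tumours, melanocytes, keratinocytes and normal skin, hybridised to a >10,000-probe (>200 nt) ncRNA array that also carries RefSeq mRNA probes.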

Row | Substance | ncRNA array expression, patient 2 | ncRNA array expression, patient 3 | ncRNA array expression, patient 4 | ncRNA array expression, patient 5 | ncRNA array expression, patient 6 | ncRNA array expression, patient 7 | ncRNA array expression, patient 8 | ncRNA array expression, patient 9 | ncRNA array expression, patient 10 | ncRNA array expression, patient 19 | ncRNA array expression, patient 20 | ncRNA array expression, patient 21 | ncRNA array expression, patient 22 | ncRNA array expression, patient 23 | ncRNA array expression, patient 24 | ncRNA array expression, patient 25 | ncRNA array expression, patient 26 | ncRNA array expression, patient 27 | ncRNA array expression, patient 28 | ncRNA array expression, patient 29 | further results
1 | SEQ ID NO 83 (TCAGTTTGATGATTGGGCTAGGGAATGAAGCTTTGCCACTTAGGAGATAAACCCCATAAC; listed as DNA, chemistry not given here; listed as Homo sapiens) | −1.488 | −1.164 | −1.691 | −1.156 | −0.6047 | −0.9496 | −0.9534 | −1.016 | −1.381 | −1.6448 | −1.228 | −1.45 | −1.116 | −1.855 | −1.066 | −1.422 | −1.405 | −1.43 | −1.28 | −1.1118 | ncRNA array expression, patient 30: −1.73
2 | SEQ ID NO 84 (TTATTAAAAGGACTGAGGATCATGTGTGTTGGTGTGTCCCGGAGTCTGCTCTAAGGTAAA; listed as DNA, chemistry not given here; listed as Homo sapiens) | 1.997 | 1.789 | 1.046 | 0.9959 | 0.3741 | 2.005 | 1.104 | 1.55 | 0.2561 | 1.044 | 1.668 | 1.56 | 2.01 | 2.078 | 1.532 | 1.329 | 1.373 | 1.88 | 1.062 | 1.558 | ncRNA array expression, patient 30: 1.105
3 | SEQ ID NO 85 (TGAGGGGAGAGGGGATGGGAAACATTAGGGCTGGGTTCATGTAAAGGGACCAGCATTGTG; listed as DNA, chemistry not given here; listed as Homo sapiens) | −3.042 | −2.236 | −3.353 | −3.144 | −1.878 | −3.331 | −3.241 | −3.15 | −2.88 | −2.497 | −3.4136 | −3.4 | −1.235 | −0.784 | −3.14 | −3.2 | −3.139 | −3.328 | −3.261 | −3.3212 | ncRNA array expression, patient 30: 0.6346
4 | SEQ ID NO 86 (AAAATTATTTTATCTTAAGTTTCCATTTAGTTGATTAAAAATAGGGTTATGAATGTTAAA; listed as DNA, chemistry not given here; listed as Homo sapiens) | 2.021 | 1.628 | 5.076 | −0.09781 | −0.05485 | −0.1079 | 0.751 | 0.02401 | 1.097 | 1.409 | 0.8906 | 1.056 | −0.01773 | −0.00853 | 2.72 | 3.621 | 3.088 | 5.119 | −0.07222 | −0.07156 | ncRNA array expression, patient 30: 1.029
5 | SEQ ID NO 87 (GGGATATTTTTAAGGGGAAGGGGAAGGATAGAGAGAAAGTGCAGGCAGGGCTGGGGTCTG; listed as DNA, chemistry not given here; listed as Homo sapiens) | −2.131 | −1.6373 | −2.999 | −2.972 | −2.3216 | −2.468 | −2.76 | −1.536 | −1.881 | −0.8262 | −1.935 | −2.079 | −1.312 | −2 | −3.011 | −2.33 | −2.364 | −2.214 | −2.17 | −2.373 | ncRNA array expression, patient 30: 0.7984
6 | SEQ ID NO 88 (CTGTTGCTTATTCTGGGAGCCCAATCCTAGGCTGAGGGAGGTGGGCGCGGGGCTGTTTAA; listed as DNA, chemistry not given here; listed as Homo sapiens) | −1.501 | −1.118 | −1.158 | −1.192 | −0.882 | −1.165 | −1.206 | −1.551 | −1.883 | −0.5619 | −1.6443 | −1.527 | −0.8009 | −0.3034 | −1.128 | −1.933 | −1.942 | −2.173 | −1.861 | −2.1207 | ncRNA array expression, patient 30: 0.7208
7 | SEQ ID NO 89 (GGACACAGAGAGTCATGCACCAGCCCAGTGAGAACCAATTCAGAGCCAAATGCCAAACCC; listed as DNA, chemistry not given here; listed as Homo sapiens) | −1.09 | −1.2821 | −1.434 | −1.049 | −0.6535 | −0.5162 | −1.137 | −1.442 | −1.643 | −0.5304 | −0.7949 | −1.104 | −0.9143 | −0.3405 | −0.9409 | −1.675 | −1.6 | −0.9956 | −0.9677 | −1.266 | ncRNA array expression, patient 30: 0.7591
